Measured values from patent publication US9969699B2, “Cancer cell growth inhibitor, anticancer agent, and method for screening same, as well as novel compound” (Microbial Chemistry Research Foundation, priority 2014, dated 2018).
Where two headings read alike, the source gives them in different places.

How the values were obtained:
NIH3T3/EGFR vIII cells = assay: 3D cell culture step (environment without adhesion scaffold), proliferation of NIH3T3/EGFR vIII cells; type: cell-based, mouse; conditions: Mus musculus, 72 h; NIH3T3/EGFR vIII cells, Ultra Low Attachment plate, 3 days, […]-GLO
NIH3T3 cells = assay: 2D cell culture step (environment with adhesion scaffold), proliferation of NIH3T3 cells; type: cell-based; conditions: Mus musculus, read-out: IC50 2D cell culture step
Procedure: Note that, as a negative control, the NIH3T3 cells at 2×10^3 cells/100 were seeded to the same plate in a volume of 100 μL per well and cultured at 37° C. in the presence of 5% CO2 for 3 days without the addition of the test substance.
Note that, Dulbecco's Modified Eagle Medium supplemented with 5% FBS was used for the culture.
A cell proliferation inhibition rate in the 2D cell culture step was calculated according to (Expression 2) below. Cell proliferation inhibition rate(%)=(1−D/E)×100 (Expression 2)
In the (Expression 2), D denotes the number of viable NIH3T3 cells when the test substance was added, and E denotes the number of viable NIH3T3 cells when the test substance was not added.

[1] = 72 h, NIH3T3 cells, TC-treated plate, 3 days, […]-GLO

With `O=c1[nH]c2ccccc2nc1-c1ccccc1NCc1ccc(F)cc1` [Structural Formula (12), 3-{2-[(4-fluorobenzyl)amino]phenyl}-2(1H)-quinoxalinone] the IC50 (NIH3T3/EGFR vIII cells) was > 10 µM and the IC50 (NIH3T3 cells; [1]) was > 10 µM.

In the case of `Nc1ccccc1-c1nc2ccccc2[nH]c1=O` [Structural Formula (9), 3-(2-aminophenyl)-2(1H)-quinoxalinone], the IC50 (NIH3T3/EGFR vIII cells) is reported as > 10 µM and the IC50 (NIH3T3 cells; [1]) is reported as > 10 µM.

With `Cc1ccc(N)c(-c2nc3ccccc3[nH]c2=O)c1` [Structural Formula (4), 3-(2-amino-5-methylphenyl)hydroquinoxalin-2-one] the IC50 (NIH3T3/EGFR vIII cells) was 0.5 µM and the IC50 (NIH3T3 cells; [1]) was > 10 µM.

In the case of `O=C(Nc1ccc(Br)cc1-c1nc2ccccc2[nH]c1=O)c1ccccc1` [Structural Formula (15)], the IC50 (NIH3T3/EGFR vIII cells) is reported as > 10 µM and the IC50 (NIH3T3 cells; [1]) is reported as > 10 µM.

`CC(=O)Nc1ccc(Br)cc1-c1nc2ccccc2[nH]c1=O` [Structural Formula (3), N-[4-bromo-2-(3-oxo(4-hydroquinoxalin-2-yl))phenyl]acetamide] was tested, and the IC50 (NIH3T3/EGFR vIII cells) was 0.5 µM and the IC50 (NIH3T3 cells; [1]) was > 10 µM.

With `Nc1ccc(F)cc1-c1nc2ccccc2[nH]c1=O` [Structural Formula (7), 3-(2-Amino-5-fluorophenyl)-2(1H)-quinoxalinone] the IC50 (NIH3T3/EGFR vIII cells) was 0.34 µM and the IC50 (NIH3T3 cells; [1]) was > 10 µM.

For `CNc1ccc(Br)cc1-c1nc2ccccc2[nH]c1=O` [Structural Formula (10), 3-[5-bromo-2-(methylamino)phenyl]-2(1H)-quinoxalinone], the IC50 (NIH3T3/EGFR vIII cells) was > 10 µM and the IC50 (NIH3T3 cells; [1]) was > 10 µM.

Work on `C#Cc1cccc(Nc2ncnc3cc(OCCOC)c(OCCOC)cc23)c1` [Erlotinib, reference compound] yielded an IC50 (NIH3T3 cells; NIH3T3, 72 h) of 50 µM.
